Data published in US9629941B2, “Hydrogel coated scaffold” (CORTICALIS AS, priority 2012, dated 2017).
Where a SMILES comes first, the peptide text is derived from it.

Legend:
MC3T3-E1 cells [1] = assay: Cell viability: LDH activity in culture media of cells on alginate hydrogels; assay type: cell-based, mouse; settings: 24 h; 50 μg/ml in 2% alginate hydrogel
Procedure: (§1) The mouse osteoblastic cell line MC3T3-E1 (DSMZ, Braunschweig, Germany) was maintained as previously described (Tiainen H et al., 2011). Before seeding, 24-well culture plates containing crosslinked alginate hydrogels were washed with 750 μl of culture media to remove the excess of CaCl2. After evaluation of the efficiency of cell adhesion on 2% alginate gel using different cell densities, for the final experiments, cells were seeded at a density of 100 000 cells/well. Media was refreshed twice a week. Culture media was collected 24 h after seeding to study cell viability. Cells were harvested at days 14 and 21 to analyze gene expression of adhesion and osteogenic-related markers using real-time RT-PCR. Cultures were routinely observed using light microscopy (Leica DMIRB, Leica Microsystems Wetzlar GmbH, Germany).
The LDH activity determined in the culture media after 24 h was taken as an indicator of membrane leakage or cell lysis. The activity of the cytosolic enzyme was estimated as previously described (Rupert M at al., 2011).

MC3T3-E1 cells [2] = assay: Gene expression of cell adhesion and osteoblast markers by real-time RT-PCR, cells on alginate hydrogels; assay type: cell-based, mouse; settings: 50 μg/ml in 2% alginate hydrogel
Procedure: as §1
Total RNA was isolated using Tripure® (Roche Diagnostics, Mannheim, Germany), according to the manufacturer's protocol. Total RNA was quantified at 260 nm using a Nanodrop spectrophotometer (NanoDrop Technologies, Wilmington, Del., USA).
The same amount of RNA (350 ng) was reverse transcribed to cDNA using high capacity RNA-to-cDNA kit (Applied Biosystems, Foster City, Calif.), according to the protocol of the supplier. Aliquots of each cDNA were frozen (−20° C.) until the PCR reactions were carried out.
Real-time PCR was performed in the Lightcycler 480® (Roche Diagnostics, Mannheim, Germany) using SYBR green detection. Real-time PCR was done for two reference genes (18SrRNA and glyceraldehyde-3-phosphate dehydrogenase (GAPDH)) and ten target genes (integrin alpha 8 (Itga8), integrin beta1 (Itgb1), integrin beta 3 (Itgb3), fibronectin 1 (Fn11), bone morphogenetic protein 2 (Bmp2), collagen type I (Coll-I), bone sialoprotein (Bsp), alkaline phosphatase (Alp), osteocalcin (Oc) and osteopontin (Opn)).
The primer sequences are detailed in Table 2. Reaction conditions and relative quantification have been done as previously described (Tiainen H et al., 2011).

[3] = system: primary human osteoblasts; assay: Cytotoxicity assay (LDH activity in culture medium), SIM containing scaffolds; assay type: cell-based; settings: for LDH activity compared to alginate-coated scaffolds without SIM: 14-day period
Procedure: Cells from passages 7-9 were seeded on scaffolds at a density of 400.000 cells/ml. […] Scaffolds soaked with culture medium were placed in 48-well culture plates. […] The culture medium was replaced every other day. Collected medium was saved for use in cytotoxicity, alkaline phosphatase (ALP) activity and protein expression assays.

[4] = Peptide release profile from 2% alginate hydrogel (fluorescence spectroscopy); assay type: physicochemical
Procedure: To study the peptide release profile, P2 was labeled with FITC. The release of peptide contained into the 2% alginate hydrogel (50 μg/ml) was quantified by fluorescence spectroscopy. First, alginate hydrogels were washed with culture media to remove the excess of CaCl2. Then, 750 μl of cell culture media were added onto peptide loaded alginate hydrogel. The samples were incubated at 37° C. and 5% CO2 for 21 days and cell culture media was changed twice a week. At prefixed time points (24 h, 4 d, 7 d, 11 d, 14 d, 18 d and 21 d), supernatants were collected and analyzed by fluorescence spectroscopy (λ ex 490 nm and λ em 525 nm) to determine the amount of peptide released to the media. The amount of peptide released during the washing step was also measured. The experiment was performed three times, and each sample analyzed in triplicate.
Relative fluorescence units were correlated with the amount of peptide released using a linear standard curve for each time point.

[5] = Peptide 2 release profile from TiO2 scaffolds coated with 2% alginate gel (UV-Vis 206 nm); assay type: physicochemical; settings: P2-alginate-coated TiO2 scaffolds, distilled water, 37° C.
Procedure: TiO2 scaffolds coated with 2% alginate containing peptide 2 (P2-alginate-coated scaffold) were placed into 48-well plates (Nunc GmBh & Co. Kg, Langenselbold, Germany) containing 1 ml distilled water (pH 7.4). In order to mimic cell culture conditions, the samples were agitated on an orbital shaker at 200 rpm (IKA® Schüttler MTS 2, Germany) for 6 h at 37° C. and in humidity conditions (using a distilled water container). Then, samples were maintained at 37° C. in a humidified atmosphere for up to 21 days. At prefixed time points (2d, 5d, 7d, 9d, 12d, 14d, 16d, 19d and 21d), distilled water was collected and fresh distilled water was added into each well. Sample absorbances were analyzed by UV-Vis spectrophotometer (PerkinElmer® Lambda 25 UV/Vis Systems, USA) at a wavelength of 206 nm to determine the amount of peptide released. In parallel, […] scaffolds coated with one layer of 2% alginate gel were used as control to subtract absorbance values obtained from degradation products from alginate.
Relative absorbance units were correlated with the amount of peptide released using a linear standard curve for each time point and the cumulative P2 released was then calculated. The experiment was performed in triplicate.

[6] = FITC-labeled P2, 50 μg/ml in 2% alginate hydrogel, culture media, 37° C.

Row | Compound | Oc mRNA levels (MC3T3-E1 cells [2]; 21 days, vs control) | Expression of Opn (MC3T3-E1 cells [2]; 14 days, vs control) | Fn1 mRNA levels (MC3T3-E1 cells [2]; 14 days, vs control) | Itgb1 mRNA levels (MC3T3-E1 cells [2]; 14 days, vs control) | Itgb3 mRNA levels (MC3T3-E1 cells [2]; 14 days, vs control) | Fn1 mRNA levels (MC3T3-E1 cells [2]; 21 days) | Itgb3 mRNA levels (MC3T3-E1 cells [2]; 21 days) | ALP mRNA levels (MC3T3-E1 cells [2]; 21 days, vs control) | also measured
1 | PLVPSSPLVPCCPLVPCCPSPPLPP (Synthetic biomineralizing peptide) [P5, synthetic proline-rich peptide] | increased | – | – | – | – | – | – | – | toxic effects compared to EMD and to untreated alginate gel (MC3T3-E1 cells [1]): significantly lower toxic effects; Itga8 mRNA expression (MC3T3-E1 cells [2]; 21 days, vs control alginate hydrogel): increased
2 | CCC(C)(C)C(=O)O[C@H]1C[C@@H](C)C=C2C=C[C@H](C)[C@H](CC[C@@H]3C[C@@H](O)CC(=O)O3)[C@H]21 [SIM, simvastatin] | – | – | – | – | – | – | – | – | LDH activity compared to alginate-coated scaffolds without SIM ([3]; 10 nM SIM): Neither of the SIM concentrations caused a significant increase; LDH activity compared to alginate-coated scaffolds without SIM ([3]; 10 μM SIM): Neither of the SIM concentrations caused a significant increase; LDH activity, scaffolds with 10 μM SIM compared to scaffolds with 10 nM SIM ([3]; throughout the 14-day period): higher LDH activity
3 | CC(C)C[C@H](NC(=O)[C@@H]1CCCN1)C(=O)N[C@H](C(=O)N1CCC[C@H]1C(=O)N[C@@H](CO)C(=O)N[C@@H](CCC(N)=O)C(=O)N1CCC[C@H]1C(=O)N[C@@H](CC(C)C)C(=O)N[C@H](C(=O)N1CCC[C@H]1C(=O)N[C@@H](CO)C(=O)N[C@@H](CCC(N)=O)C(=O)N1CCC[C@H]1C(=O)N[C@@H](CC(C)C)C(=O)N[C@H](C(=O)N1CCC[C@H]1C(=O)N[C@@H](CO)C(=O)N[C@@H](CCC(N)=O)C(=O)N1CCC[C@H]1C(=O)N[C@@H](CCC(N)=O)C(=O)N1CCC[C@H]1C(=O)N1CCC[C@H]1C(=O)N[C@@H](CC(C)C)C(=O)N1CCC[C@H]1C(=O)N1CCC[C@H]1C(=O)O)C(C)C)C(C)C)C(C)C [P2] (H-PLVPSQPLVPSQPLVPSQPQPPLPP-OH) | – | decreased significantly | decreased significantly | significantly decreased | decreased significantly | no differences were observed | no differences were observed | significantly decreased | total peptide theoretically contained in the alginate hydrogel not released after 21 days ([4]; FITC-labeled P2, 50 μg/ml in 2% alginate hydrogel, 37° C.): 5.6%; burst release of the peptide during the first 24 h of incubation [4, 6]: 54.67%; peptide slowly released up to 11 days [4, 6]: 25.8%; loaded peptide released during the washing step ([4]; washing of alginate hydrogels with culture media to remove excess CaCl2): 12.7%; cell viability compared to EMD (MC3T3-E1 cells [1]): significantly increased; Bmp2 relative mRNA levels (MC3T3-E1 cells [2]; 21 days, vs EMD): decreased; amount of peptide released after 5 days [5]: 9.4 % of the cumulative amount rel; burst release of the peptide during the first 2 days of incubation [5]: 42.8 % of the cumulative amount of P2 released after 21 days
4 | PHQPMQPQPPVHPMQPLPPQPPLPP (Synthetic biomineralizing peptide) [P6, synthetic proline-rich peptide] | increased | decreased significantly | decreased significantly | significantly decreased | decreased significantly | no differences were observed | no differences were observed | significantly decreased | Bmp2 relative mRNA levels (MC3T3-E1 cells [2]; 14 days, sentence ends 'compared to EMD'): increased significantly; ALP mRNA levels (MC3T3-E1 cells [2]; 14 days, vs control): significantly decreased; Itgb1 mRNA levels (MC3T3-E1 cells [2]; 21 days, vs EMD): reduced significantly
